# Source: patent US12264134B2 (Merck Sharp & Dohme LLC, priority 2018, dated 2025)
# Biological target: IDO1 (Homo sapiens, UniProt P14902)
# Assay: IDO1 Cellular Assay in HeLa Cells Stimulated with IFNγ
# Type: cell-based
# Conditions: read-out: HeLa Cell Potency, IC50
# IDO1, sequence (P14902 whole entry): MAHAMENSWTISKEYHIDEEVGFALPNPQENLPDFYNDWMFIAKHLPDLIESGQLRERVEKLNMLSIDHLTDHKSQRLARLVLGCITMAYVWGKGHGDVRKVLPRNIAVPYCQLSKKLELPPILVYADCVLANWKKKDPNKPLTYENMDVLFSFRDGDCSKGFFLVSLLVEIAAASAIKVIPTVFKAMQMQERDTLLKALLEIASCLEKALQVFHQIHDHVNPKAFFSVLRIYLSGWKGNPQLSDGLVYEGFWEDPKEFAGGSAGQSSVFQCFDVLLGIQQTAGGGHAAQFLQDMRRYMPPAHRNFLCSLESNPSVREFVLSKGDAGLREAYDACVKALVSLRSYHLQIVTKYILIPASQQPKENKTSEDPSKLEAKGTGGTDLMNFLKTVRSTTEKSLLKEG
row,Structure (SMILES),IC50 [nM]
1,"Cc1cccc(N2CCN(C(=O)Cn3nc(C(=O)N4CCN5CCCC[C@H]5C4)c4c3CCC4)CC2)c1C [Example 191, 1-[4-(2,3-dimethylphenyl)piperazin-1-yl]-2-{3-[(9aS)-octahydro-2H-pyrido[1,2-a]pyrazine-2-carbonyl]-5,6-dihydrocyclopenta[c]pyrazol-1(4H)-yl}ethan-1-one]",2.92
2,"Cc1cccc(N2CCN(C(=O)Cn3nc(C(=O)N4CCCC5(CCNC5=O)C4)c4c3CCC4)CC2)c1C (centres unmarked) [Example 193, 7-(1-{2-[4-(2,3-dimethylphenyl)piperazin-1-yl]-2-oxoethyl}-1,4,5,6-tetrahydrocyclopenta[c]pyrazole-3-carbonyl)-2,7-diazaspiro[4.5]decan-1-one]",75
3,"CC(=O)NC1CCN(C(=O)c2nn(CC(=O)N3CCN(c4cccc(C)c4C)CC3)c3c2CCC3)C1 (centres unmarked) [Example 194, N-[1-(1-{2-[4-(2,3-dimethylphenyl)piperazin-1-yl]-2-oxoethyl}-1,4,5,6-tetrahydrocyclopenta[c]pyrazole-3-carbonyl)pyrrolidin-3-yl]acetamide]",40
4,"Cc1cccc(N2CCN(C(=O)Cn3nc(C(=O)N4CCNCC4)c4c3CCC4)CC2)c1C [Example 195, 1-[4-(2,3-dimethylphenyl)piperazin-1-yl]-2-[3-(piperazin-1-carbonyl)-5,6-dihydrocyclopenta[c]pyrazol-1(4H)-yl]ethan-1-one]",189
5,"Cc1cccc(N2CCN(C(=O)Cn3nc(C(=O)N4CC5C(N)C5C4)c4c3CCC4)CC2)c1C (centres unmarked) [Example 196, 2-[3-(6-amino-3-azabicyclo[3.1.0]hexane-3-carbonyl)-5,6-dihydrocyclopenta[c]pyrazol-1(4H)-yl]-1-[4-(2,3-dimethylphenyl)piperazin-1-yl]ethan-1-one]",103
6,"Cc1cccc(N2CCN(C(=O)Cn3nc(C(=O)N4C[C@@H](C)N[C@@H](C)C4)c4c3CCC4)CC2)c1C [Example 197, 1-[4-(2,3-dimethylphenyl)piperazin-1-yl]-2-{3-[(3R,5S)-3,5-dimethylpiperazine-1-carbonyl]-5,6-dihydrocyclopenta[c]pyrazol-1(4H)-yl}ethan-1-one]",11.4
7,"Cc1cccc(N2CCN(C(=O)Cn3nc(C(=O)N4CC[C@@H](N)[C@@H](C)C4)c4c3CCC4)CC2)c1C [Example 198, 2-{3-[(3S,4R)-4-amino-3-methylpiperidine-1-carbonyl]-5,6-dihydrocyclopenta[c]pyrazol-1(4H)-yl}-1-[4-(2,3-dimethylphenyl)piperazin-1-yl]ethan-1-one]",89.6
8,"Cc1cccc(N2CCN(C(=O)Cn3nc(C(=O)N4CC5CNC5C4)c4c3CCC4)CC2)c1C (centres unmarked) [Example 199, 2-[3-(3,6-diazaspiro[3.2.0]heptane-3-carbonyl)-5,6-dihydrocyclopenta[c]pyrazol-1(4H)-yl]-1-[4-(2,3-dimethylphenyl)piperazin-1-yl]ethan-1-one]",19
9,"Cc1cccc(N2CCN(C(=O)Cn3nc(C(=O)N4CCC(N)CC4)c4c3CCC4)CC2)c1C [Example 200, 2-[3-(4-aminopiperidine-1-carbonyl)-5,6-dihydrocyclopenta[c]pyrazol-1(4H)-yl]-1-[4-(2,3-dimethylphenyl)piperazin-1-yl]ethan-1-one]",26.6
10,"Cc1cccc(N2CCN(C(=O)Cn3nc(C(=O)N4CC[C@@H](F)[C@@H](O)C4)c4c3CCC4)CC2)c1C [Example 204, 1-[4-(2,3-dimethylphenyl)piperazin-1-yl]-2-[3-[(3S,4R)-4-fluoro-3-hydroxy-piperidine-1-carbonyl]-5,6-dihydro-4H-cyclopenta[c]pyrazol-1-yl]ethanone]",13.1
11,"Cc1cccc(N2CCN(C(=O)Cn3nc(C(=O)N4CCC(O)C(F)(F)C4)c4c3CCC4)CC2)c1C (centres unmarked) [Example 205, 2-[3-(3,3-difluoro-4-hydroxy-piperidine-1-carbonyl)-5,6-dihydro-4H-cyclopenta[c]pyrazol-1-yl]-1-[4-(2,3-dimethylphenyl)piperazin-1-yl]ethanone]",17.1
12,"Cc1cccc(N2CCN(C(=O)Cn3nc(C(=O)N4CC[C@@H](N)[C@H](F)C4)c4c3CCC4)CC2)c1C [Example 207, [(3R,4R)-1-[1-[2-[4-(2,3-dimethylphenyl)piperazin-1-yl]-2-oxo-ethyl]-5,6-dihydro-4H-cyclopenta[c]pyrazole-3-carbonyl]-3-fluoro-4-piperidyl]ammonium;formate]",28
13,"Cc1cccc(N2CCN(C(=O)Cn3nc(C(=O)N4CC[C@H](N)[C@H](F)C4)c4c3CCC4)CC2)c1C [Example 211, [(3R,4S)-1-[1-[2-[4-(2,3-dimethylphenyl)piperazin-1-yl]-2-oxo-ethyl]-5,6-dihydro-4H-cyclopenta[c]pyrazole-3-carbonyl]-3-fluoro-4-piperidyl]ammonium;formate]",72.1
14,"Cc1cccc(N2CCN(C(=O)Cn3nc(C(=O)N4CCC(F)(F)C(O)C4)c4c3CCC4)CC2)c1C (centres unmarked) [Example 212, 2-[3-(4,4-difluoro-3-hydroxy-piperidine-1-carbonyl)-5,6-dihydro-4H-cyclopenta[c]pyrazol-1-yl]-1-[4-(2,3-dimethylphenyl)piperazin-1-yl]ethanone]",79.9
15,"Cc1cccc(N2CCN(C(=O)Cn3nc(C(=O)N4CC[C@@H](N)[C@@H](F)C4)c4c3CCC4)CC2)c1C [Example 214, [(3S,4R)-1-[1-[2-[4-(2,3-dimethylphenyl)piperazin-1-yl]-2-oxo-ethyl]-5,6-dihydro-4H-cyclopenta[c]pyrazole-3-carbonyl]-3-fluoro-4-piperidyl]ammonium;formate]",105

# Continued, values first:
row,IC50 [nM],Structure (SMILES)
1,1.38,"Cc1cccc(N2CCN(C(=O)Cn3nc(C(=O)N4CCCCC45CC5)c4c3C[C@H]3C[C@@H]43)CC2)c1C [Example 215, 2-[(3bR,4aSR)-3-(4-azaspiro[2.5]octane-4-carbonyl)-3b,4,4a,5-tetrahydro-1H-cyclopropa[3,4]cyclopenta[1,2-c]pyrazol-1-yl]-1-[4-(2,3-dimethylphenyl)piperazin-1-yl]ethan-1-one]"
2,7.25,"Cc1cccc(N2CCN(C(=O)Cn3nc(C(=O)N4CCC(O)CC4(C)C)c4c3C[C@H]3C[C@@H]43)CC2)c1C (stereo partly drawn) [Example 216, 1-[4-(2,3-dimethylphenyl)piperazin-1-yl]-2-[(3bR,4aR)-3-(4-hydroxy-2,2-dimethylpiperidine-1-carbonyl)-3b,4,4a,5-tetrahydro-1H-cyclopropa[3,4]cyclopenta[1,2-c]pyrazol-1-yl]ethan-1-one]"
3,2.1,"CNC(=O)NC1CCN(C(=O)c2nn(CC(=O)N3CCN(c4cccc(C)c4C)CC3)c3c2[C@@H]2C[C@@H]2C3)CC1 [Example 217, 1-(1-((3bR,4aR)-1-(2-(4-(2,3-dimethylphenyl)piperazin-1-yl)-2-oxoethyl)-3b,4,4a,5-tetrahydro-1H-cyclopropa[3,4]cyclopenta[1,2-c]pyrazole-3-carbonyl)piperidin-4-yl)-3-methylurea]"
4,0.64,"Cc1cccc(N2CCN(C(=O)Cn3nc(C(=O)N4CC[C@@H]5[C@H](CCC(=O)N5C)C4)c4c3C[C@H]3C[C@@H]43)CC2)c1C [Example 218, (4aR,8aR)-6-((3bR,4aR)-1-(2-(4-(2,3-dimethylphenyl)piperazin-1-yl)-2-oxoethyl)-3b,4,4a,5-tetrahydro-1H-cyclopropa[3,4]cyclopenta[1,2-c]pyrazole-3-carbonyl)-1-methyloctahydro-1,6-naphthyridin-2(1H)-one]"
5,0.86,"Cc1cccc(N2CCN(C(=O)Cn3nc(C(=O)N4CCC5(CC4)CC(=O)N5)c4c3C[C@H]3C[C@@H]43)CC2)c1C [Example 219, 7-[(3bR,4aR)-1-{2-[4-(2,3-dimethylphenyl)piperazin-1-yl]-2-oxoethyl}-3b,4,4a,5-tetrahydro-1H-cyclopropa[3,4]cyclopenta[1,2-c]pyrazole-3-carbonyl]-1,7-diazaspiro[3.5]nonan-2-one]"
6,1.53,"Cc1cccc(N2CCN(C(=O)Cn3nc(C(=O)N4CCC(C)(C(N)=O)CC4)c4c3C[C@H]3C[C@@H]43)CC2)c1C [Example 220, 1-[(3bR,4aR)-1-{2-[4-(2,3-dimethylphenyl)piperazin-1-yl]-2-oxoethyl}-3b,4,4a,5-tetrahydro-1H-cyclopropa[3,4]cyclopenta[1,2-c]pyrazole-3-carbonyl]-4-methylpiperidine-4-carboxamide]"
7,3.76,"Cc1cccc(N2CCN(C(=O)Cn3nc(C(=O)N4CCC(CO)(CO)CC4)c4c3C[C@H]3C[C@@H]43)CC2)c1C [Example 221, 2-{(3bR,4aR)-3-[4,4-bis(hydroxymethyl)piperidine-1-carbonyl]-3b,4,4a,5-tetrahydro-1H-cyclopropa[3,4]cyclopenta[1,2-c]pyrazol-1-yl}-1-[4-(2,3-dimethylphenyl)piperazin-1-yl]ethan-1-one]"
8,6.23,"Cc1cccc(N2CCN(C(=O)Cn3nc(C(=O)N4CCC(NS(N)(=O)=O)CC4)c4c3C[C@H]3C[C@@H]43)CC2)c1C [Example 222, N-{1-[(3bR,4aR)-1-{2-[4-(2,3-dimethylphenyl)piperazin-1-yl]-2-oxoethyl}-3b,4,4a,5-tetrahydro-1H-cyclopropa[3,4]cyclopenta[1,2-c]pyrazole-3-carbonyl]piperidin-4-yl}sulfuric diamide]"
9,1.49,"Cc1cccc(N2CCN(C(=O)Cn3nc(C(=O)N4CC[C@@H](C#N)C4)c4c3C[C@H]3C[C@@H]43)CC2)c1C [Example 223, (3R)-1-[(3bR,4aR)-1-{2-[4-(2,3-dimethylphenyl)piperazin-1-yl]-2-oxoethyl}-3b,4,4a,5-tetrahydro-1H-cyclopropa[3,4]cyclopenta[1,2-c]pyrazole-3-carbonyl] pyrrolidine-3-carbonitrile]"
10,16.5,"Cc1cccc(N2CCN(C(=O)Cn3nc(C(=O)N4CCCC5(C4)NC(=O)NC5=O)c4c3C[C@H]3C[C@@H]43)CC2)c1C (stereo partly drawn) [Example 224, 7-[(3bR,4aR)-1-{2-[4-(2,3-dimethylphenyl)piperazin-1-yl]-2-oxoethyl}-3b,4,4a,5-tetrahydro-1H-cyclopropa[3,4]cyclopenta[1,2-c]pyrazole-3-carbonyl]-1,3,7-triazaspiro[4.5]decane-2,4-dione]"
11,3.93,"Cc1cccc(N2CCN(C(=O)Cn3nc(C(=O)N4CCCC(N5CCCC5=O)C4)c4c3C[C@H]3C[C@@H]43)CC2)c1C (stereo partly drawn) [Example 225, 1-{1-[(3bR,4aR)-1-{2-[4-(2,3-dimethylphenyl)piperazin-1-yl]-2-oxoethyl}-3b,4,4a,5-tetrahydro-1H-cyclopropa[3,4]cyclopenta[1,2-c]pyrazole-3-carbonyl]piperidin-3-yl}pyrrolidine-2-one]"
